Results from article PMC8390754, “Engineering and functional characterization of a proton-driven β-lactam antibiotic translocation module for bionanotechnological applications” (Scientific Reports, 2021).

Columns and labels:
YePEPT [1] = target: T1, YePEPT (Yersinia enterocolitica, UniProt A0A2R9TD79); assay: [3H]Ala-Ala uptake competition in E. coli at […]; assay type: cell-based; conditions: read-out: % inhibition at 5 mM
T1 construct: gene YEP4_02370; wild-type
T1 sequence (A0A2R9TD79 1-511): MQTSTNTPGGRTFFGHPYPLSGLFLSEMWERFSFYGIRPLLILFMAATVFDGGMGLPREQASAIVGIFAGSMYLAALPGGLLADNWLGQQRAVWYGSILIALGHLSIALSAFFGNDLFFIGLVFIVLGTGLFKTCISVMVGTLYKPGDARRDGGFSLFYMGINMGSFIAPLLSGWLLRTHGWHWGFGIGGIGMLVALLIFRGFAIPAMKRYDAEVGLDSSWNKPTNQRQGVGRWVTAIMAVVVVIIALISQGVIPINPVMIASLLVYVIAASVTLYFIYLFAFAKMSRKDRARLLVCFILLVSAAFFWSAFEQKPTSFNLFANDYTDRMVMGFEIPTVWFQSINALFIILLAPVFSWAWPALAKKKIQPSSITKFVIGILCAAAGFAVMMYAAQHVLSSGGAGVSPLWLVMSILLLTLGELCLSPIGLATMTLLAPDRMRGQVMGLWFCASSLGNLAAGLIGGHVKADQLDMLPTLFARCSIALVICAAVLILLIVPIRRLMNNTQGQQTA

YePEPT [2] = target: T2, YePEPT (Yersinia enterocolitica, UniProt A0A2R9TD79, K314A); assay: [3H]Ala-Ala uptake competition in E. coli at […]; assay type: cell-based
T2 construct: gene YEP4_02370

YePEPT [3] = target: T3, YePEPT (Yersinia enterocolitica, UniProt A0A2R9TD79, F311Y/K314A); assay: [3H]Ala-Ala uptake competition in E. coli overexpressing the transporter; transport confirmed by SSM electrophysiology in proteoliposomes; assay type: cell-based
T3 construct: gene YEP4_02370

[4] = system: C[C@H](N)C(=O)N[C@@H](C)C(=O)O; assay: radioligand uptake kinetics in E. coli; SSM electrophysiology in proteoliposomes; assay type: cell-based, Yersinia enterocolitica
YePEPT [5] = target: T3, YePEPT; assay: SSM electrophysiology with proteoliposomes of purified transporter ([…]); also uptake inhibition in cells; assay type: biochemical

Compound | inhibition at 5000 µM (YePEPT [1]) [%] | [3H]Ala-Ala uptake competition in E. coli at 5 mM (YePEPT [2]) | IC50 (YePEPT [3]) [µM] | Km [4] [µM] | % transported charge relative to Ala-Ala (YePEPT [5])
CC1(C)S[C@@H]2[C@H](NC(=O)[C@H](N)c3ccc(O)cc3)C(=O)N2[C@H]1C(=O)O [compound 2, amoxicillin] | ~50 | YePEPT^K314A (Fig. 2c) showed a strong increase in affinity for amoxicillin and cefadroxil | 106 |  | 
CC1=C(C(=O)O)N2C(=O)[C@@H](NC(=O)[C@H](N)c3ccc(O)cc3)[C@H]2SC1 [compound 6, cefadroxil] |  | YePEPT^K314A (Fig. 2c) showed a strong increase in affinity for amoxicillin and cefadroxil | 229 |  | 
CC=CC1=C(C(=O)O)N2C(=O)[C@@H](NC(=O)[C@H](N)c3ccc(O)cc3)[C@H]2SC1 [compound 7, cefprozil] |  |  | 32 |  | 
YePEPT (Yersinia enterocolitica subsp. palearctica YE-P4; F311Y/K314A) |  |  |  | 199 | 
CC1(C)S[C@@H]2[C@H](NC(=O)[C@H](N)c3ccccc3)C(=O)N2[C@H]1C(=O)O [compound 1, ampicillin] | ~50 |  |  |  | 9 % transported charge relative to Ala-Ala
